Values quoted from earlier work in US20030194372A1, “Radioimaging probes and the use thereof” (priority 2000, published 2003).

System: atheroma
Details: literature reports

Structure (SMILES): CCC(Cc1c(I)cc(I)c(N)c1I)C(=O)O[C@H]1CC[C@@]2(C)C(=CC[C@H]3[C@@H]4CC[C@H]([C@H](C)CCCC(C)C)[C@@]4(C)CC[C@@H]32)C1 (stereo partly shown) [CI, cholesteryl iopanoate]
- Accumulation in atheroma / atherosclerotic lesions: accumulated preferentially in atheroma relative to normal arterial tissue
